Source: publication PMC12156041, “Design, Synthesis and Antiplasmodial Activities of a Library of Fluorine-Based 3-Benzylmenadiones” (Molecules, 2025)
≈ marks a conversion by molar mass, not a printed value. Like-named read-outs stand apart in the source and are kept apart here.

Tests used:
[1] = tested on: rat myoblast cell line (L6 cells); assay type: cell-based
Source text: Considering the potency of plasmodione and the observed main metabolite 6-hydroxy–plasmodione eliminated in the urine of PD-treated mice, our primary goal was to introduce a fluorine atom at C-6 of the menadione core to block the process of drug metabolism from occurring in the host’s liver. In this aim, we prioritized the preparation of a library of 6-fluoro-3-benzylmenadiones by investigating the replacement of the trifluoromethyl group by diverse EWG and EDG groups in various loci of the aryl ring. For SAR, all compounds were tested for the inhibition of parasite growth in RBCs infected with a P. falciparum chloroquine-sensitive strain, NF54. The parasites were cultured in vitro according to known conditions. […] The cytotoxicity of the active compounds was assessed against a rat myoblast cell line (L6 cells).
Cell proliferation was assessed with resazurin, and the generally cytotoxic agent podophyllotoxin served as the positive control, as previously reported by the STPH authors M. R. and P. M. in their recently published article.

[2] = tested on: P. falciparum NF54 strain; test: P. falciparum NF54 [3H]hypoxanthine incorporation assay, 72 h, 0.5% Albumax; assay type: cell-based; conditions: Plasmodium falciparum
[3] = tested on: P. falciparum NF54 strain; conditions: cited from earlier work
[4] = tested on: rat myoblast cell line (L6 cells); conditions: cited from earlier work
[5] = Thermodynamic aqueous solubility (shake-flask, PBS-10% DMSO); assay type: physicochemical; conditions: PBS with 10% DMSO, aqueous with cosolvent or surfactant or cyclodextrin, PBS pH 7.4, 10% DMSO, 20 °C, read-out: Thermodynamic aq. Solubility in PBS-10% DMSO
Description: Thermodynamic Aqueous Solubility: The shake-flask method enabled us to determine the apparent thermodynamic solubilities of the DMSO stock solutions of the compounds. […] The mixture was equilibrated at 20 °C for 24 h. After centrifugation, the supernatant was injected into an HPLC column coupled to an LC-MS apparatus (with UV–Vis detection) in order to determine the compound concentration. […] These solutions were also injected in order to calibrate the concentration determination process. […] Measurements were performed in duplicate.

[6] = NF54, 72 h, P. falciparum NF54, 72 h, read-out: IC50
[7] = NF54, as stated in text, read-out: IC50 against P. falciparum NF54
[8] = NF54, read-out: IC50 against P. falciparum NF54

SMILES	Tox/L6 [1] [µM]	IC50 [2, 6] [nM]	further results
CC1=C(Cc2cccs2)C(=O)c2ccccc2C1=O [A-b-28]	5.2	115	
CC1=C(Cc2ccc([N+](=O)[O-])c(F)c2)C(=O)c2ccccc2C1=O [B-b-32]			IC50 ([3]; grey line ref 9): 598 nM; Tox/L6 ([4]; grey line ref 9): 189.2 µM
COc1ccc(CC2=C(C)C(=O)c3ccc(F)cc3C2=O)c(OC)c1 [A-a-20]	106.6	316	
CC1=C(CC2CCCCC2)C(=O)c2cc(F)ccc2C1=O [A-a-29]	177.8	718	
COc1cccc(CC2=C(C)C(=O)c3ccc(F)cc3C2=O)c1 [A-a-17]	165.6	361	
CC1=C(Cc2cccc(C#N)c2)C(=O)c2ccccc2C1=O [B-b-30]	72.6	190	
CC1=C(Cc2ccc3c(c2)OCO3)C(=O)c2ccccc2C1=O [A-b-21]	97.9	200	
CC1=C(Cc2ccc(C(F)(F)F)c(Br)c2)C(=O)c2ccccc2C1=O [A-b-8]		81	IC50 [2, 7]: < 100 nM
CC1=C(Cc2ccc(F)c(I)c2)C(=O)c2cc(F)ccc2C1=O [B-a-33]		376	
COc1ccc(CC2=C(C)C(=O)c3ccc(F)cc3C2=O)c(OC)c1OC [A-a-25]	215.5	340	
O=C1C(O)=C([C@H]2CC[C@H](c3ccc(Cl)cc3)CC2)C(=O)c2ccccc21 [atovaquone, reference compound]			solubility thermodynamic at 24 h [5]: 1.55 ± 0.04 µM (≈ 0.569 µg/mL)
CC1=C(Cc2ccc3c(c2)OC(F)(F)O3)C(=O)c2cc(F)ccc2C1=O [A-a-24]		206	
CC1=C(Cc2ccc(Br)cc2C(F)(F)F)C(=O)c2cc(F)ccc2C1=O [B-a-34]		169	
CC1=C(Cc2ccco2)C(=O)c2ccccc2C1=O [A-b-43]			IC50 ([3]; grey line ref 8): 501 nM; Tox/L6 ([4]; grey line ref 8): 4.2 µM
CC1=C(Cc2ccc(Cl)cc2C(F)(F)F)C(=O)c2ccccc2C1=O [A-b-15]		80	IC50 [2, 7]: < 100 nM
CC1=C(Cc2ccccc2C#N)C(=O)c2cc(F)ccc2C1=O [A-a-11]	327.0	264	
COc1ccc(CC2=C(C)C(=O)c3ccccc3C2=O)cc1OC [A-b-19]			IC50 ([3]; grey line ref 13): 142 nM; Tox/L6 ([4]; grey line ref 13): 5.6 µM
COc1ccc(CC2=C(C)C(=O)c3ccc(F)cc3C2=O)cc1OC [A-a-19]	5.6	171	
CC1=C(Cc2ccccc2)C(=O)c2cc(F)ccc2C1=O [B-a-31]	174.5	300	
CC1=C(Cc2ccc3scnc3c2)C(=O)c2ccccc2C1=O [C-b-40]	50.29	235	
COc1ccccc1CC1=C(C)C(=O)c2ccc(F)cc2C1=O [A-a-18]	189.3	572	
CC1=C(Cc2ccc(F)cc2)C(=O)c2ccccc2C1=O [A-b-4]			IC50 ([3]; grey line ref 13): 29 nM; IC50 [2, 8]: < 100 nM
CC1=C(Cc2ccc3ncsc3c2)C(=O)c2cc(F)ccc2C1=O [C-a-41]		2530	

SMILES	Tox/L6 [1] [µM]	IC50 [2, 6] [nM]	further results
CC1=C(Cc2ccccc2F)C(=O)c2cc(F)ccc2C1=O [A-a-6]	7.6	119	
CC1=C(Cc2cccc(C(F)(F)F)c2)C(=O)c2cc(F)ccc2C1=O [A-a-1]	12.5	82	
COc1ccc(CC2=C(C)C(=O)c3ccc(F)cc3C2=O)cc1 [A-a-16]	195.9	1120	
CC1=C(Cc2ccc(C(F)(F)F)c(Br)c2)C(=O)c2cc(F)ccc2C1=O [A-a-8]		167	
CC1=C(Cc2ccc([N+](=O)[O-])c(F)c2)C(=O)c2cc(F)ccc2C1=O [B-a-32]	107.4	705	
CC1=C(Cc2cccc(F)c2)C(=O)c2ccccc2C1=O [B-b-5]	71.0	89	IC50 [2, 7]: < 100 nM
CC1=C(Cc2ccc(Cl)cc2Cl)C(=O)c2ccccc2C1=O [A-b-14]		67	IC50 [2, 7]: < 100 nM
CC1=C(Cc2ccc3c(c2)OC(F)(F)O3)C(=O)c2ccccc2C1=O [A-b-24]		77	IC50 [2, 7]: < 100 nM
CC1=C(Cc2ccc(I)cc2)C(=O)c2cc(F)ccc2C1=O [A-a-13]	40.9	198	
CC1=C(Cc2ccccc2F)C(=O)c2ccccc2C1=O [A-b-6]		453	
CC1=C(Cc2ccc([N+](=O)[O-])cc2)C(=O)c2cc(F)ccc2C1=O [A-a-12]	307.0	177	
CC1=C(Cc2ccc3c(c2)OC(C)(C)O3)C(=O)c2cc(F)ccc2C1=O [A-a-23]		338	
CC1=C(Cc2ccccc2C#N)C(=O)c2ccccc2C1=O [A-b-11]	186.2	312	
CC1=C(Cc2ccc(F)c(I)c2)C(=O)c2ccccc2C1=O [B-b-33]		136	
CC1=C(Cc2ccccc2)C(=O)c2ccccc2C1=O [B-b-31]			IC50 ([3]; grey line ref 9): 1700 nM
CC1=C(Cc2ccc(C(F)(F)F)c(F)c2)C(=O)c2ccccc2C1=O [A-b-7]	49.2	2960	
CC1=C(Cc2ccc3scnc3c2)C(=O)c2cc(F)ccc2C1=O [C-a-40]		2060	
CC1=C(Cc2ccc(Cl)cc2Cl)C(=O)c2cc(F)ccc2C1=O [A-a-14]		137	
CC1=C(Cc2ccccc2C(F)(F)F)C(=O)c2cc(F)ccc2C1=O [A-a-2]	53.4	138	
CC1=C(Cc2ccc3c(c2)OCCO3)C(=O)c2cc(F)ccc2C1=O [A-a-22]		311	
CC1=C(Cc2ccc3ncsc3c2)C(=O)c2ccccc2C1=O [C-b-41]	49.81	370	
CC1=C(Cc2ccc([N+](=O)[O-])cc2)C(=O)c2ccccc2C1=O [A-b-12]			IC50 ([3]; grey line ref 8): 201 nM; IC50 [2, 8]: > 200 nM
CC1=C(Cc2ccc(Cl)cc2C(F)(F)F)C(=O)c2cc(F)ccc2C1=O [A-a-15]		103	

SMILES	Tox/L6 [1] [µM]	IC50 [2, 6] [nM]	further results
CC1=C(Cc2ccc(C#N)cc2)C(=O)c2cc(F)ccc2C1=O [A-a-10]	95	231	
CC1=C(Cc2ccc(F)c(C(F)(F)F)c2)C(=O)c2cc(F)ccc2C1=O [A-a-9]		149	
COc1cc(CC2=C(C)C(=O)c3ccc(F)cc3C2=O)cc(OC)c1 [B-a-35]	293.0	711	
CC1=C(Cc2ccc(Br)cc2C(F)(F)F)C(=O)c2ccccc2C1=O [B-b-34]		78	
CC1=C(Cc2ccc(C(F)(F)F)c(F)c2)C(=O)c2cc(F)ccc2C1=O [A-a-7]	85.5	735	
COc1cc(CC2=C(C)C(=O)c3ccc(F)cc3C2=O)cc(OC)c1OC [A-a-27]	72.4	265	
CC1=C(Cc2cccc(C#N)c2)C(=O)c2cc(F)ccc2C1=O [B-a-30]	33.3	326	
CC1=C(Cc2ccc(I)cc2)C(=O)c2ccccc2C1=O [B-b-13]			IC50 ([3]; grey line ref 9): 115 nM; Tox/L6 ([4]; grey line ref 9): 138.6 µM
CC1=C(Cc2ccco2)C(=O)c2cc(F)ccc2C1=O [C-a-43]	3.8	947	
CC1=C(Cc2ccc(OC(F)(F)F)cc2)C(=O)c2cc(F)ccc2C1=O [A-a-3]	138.8	330	
CC1=C(Cc2cccc(F)c2)C(=O)c2cc(F)ccc2C1=O [A-a-5]	6.6	246	
CC1=C(Cc2ccc3c(c2)OCCO3)C(=O)c2ccccc2C1=O [A-b-22]		280	
CC1=C(Cc2cccc(C(F)(F)F)c2)C(=O)c2ccccc2C1=O [B-b-1]			IC50 ([3]; grey line ref 9): 62 nM; Tox/L6 ([4]; grey line ref 9): 57.1 µM; IC50 [2, 7]: < 100 nM
COc1ccc(OC)c(CC2=C(C)C(=O)c3ccc(F)cc3C2=O)c1 [A-a-26]	91.7	291	
CC1=C(Cc2cccs2)C(=O)c2cc(F)ccc2C1=O [A-a-28]	5.8	474	
CC1=C(CC2CCCCC2)C(=O)c2ccccc2C1=O [A-b-29]	229.9	913	
CC1=C(Cc2ccc(F)cc2)C(=O)c2cc(F)ccc2C1=O [A-a-4]	174.5	302	
CC1=C(Cc2ccc3c(c2)OC(C)(C)O3)C(=O)c2ccccc2C1=O [A-b-23]		152	
CC1=C(Cc2ccc3c(c2)OCO3)C(=O)c2cc(F)ccc2C1=O [A-a-21]	165.6	70	IC50 [2, 7]: < 100 nM
CC1=C(Cc2ccccc2C(F)(F)F)C(=O)c2ccccc2C1=O [B-b-2]			IC50 ([3]; grey line ref 9): 26 nM; Tox/L6 ([4]; grey line ref 9): 249.8 µM; IC50 [2, 7]: < 100 nM
CC1=C(Cc2ccc(S(F)(F)(F)(F)F)cc2)C(=O)c2ccccc2C1=O [C-b-46, 4′-SF5-substituted 3-benzylmenadione]	35.1	48	
